In patent US11957684B2, “Treatment of heavy menstrual bleeding associated with uterine fibroids” (Sumitomo Pharma Switzerland GmbH, priority 2016, dated 2024):
Where “and” joins values, the source holds several entries; their conditions need not be identical. Identical values can stand only once.

Key:
FIG. 11 = experiment: FIG. 11
Excerpt: Table printed on a drawing sheet, FIG. 11
The patent's description of the figure: FIG. 11 is a table of plasma and urine PK parameters for Cohorts 8 to 10 on Days 1 and 14 of the treatment period in accordance with Example 4.
First reader's note: Each column is one dose cohort on one treatment day; the Min and Max rows give the range of the median Tmax, and 'nc' is not explained on the sheet.

FIG. 7D = experiment: FIG. 7D
Excerpt: Table printed on a drawing sheet, FIG. 7D
The patent's description of the figure: FIGS. 7A-F are tables of plasma PK parameters for Cohorts 8 to 10 in accordance with Example 4.

FIG. 6C = experiment: FIG. 6C
Experimental: Table printed on a drawing sheet, FIG. 6C
(§1) The patent's description of the figure: FIGS. 6A-C are tables of plasma PK parameters for Cohort 7 in accordance with Example 4.
(§2) First reader's note: Part of a plasma PK table series (FIGS. 6A-C) for Cohort 7; each column is a fed or fasted 40 mg arm.

FIG. 6B = experiment: FIG. 6B
Experimental: Table printed on a drawing sheet, FIG. 6B
as §1, §2

[1] = tested on: healthy pre-menopausal women; experiment: Example 9: pharmacodynamics, menstruation, hot flash diary, bone resorption markers; type: in vivo, human
Excerpt: (§3) Methods: This was a 6-week phase 1, randomized, open-label, parallel-group, study conducted at 4 sites in the US. […] The first day of dosing occurred on Day 1 to 6 of the menstrual cycle. Hormonal preparations were prohibited for at least 3 months prior to screening. […] Vasomotor symptoms were captured using a daily diary (from screening until follow-up).

[2] = Single dose (1 to 80 mg) and 14-day multiple dose (10 to 40 mg) PK of the Compound 1 formulation; type: in vivo; conditions: for half-life: read-out: mean plasma half-life (T1/2)
Excerpt: However, in a preferred embodiment, the pharmacokinetics of the Compound 1 formulation are not affected by food intake.
The mean plasma AUC after a single dose was higher after fasted dosing than after postprandial or preprandial dosing. The mean plasma AUC and mean Cmax with multiple dosing were higher with preprandial than with postprandial dosing.

[3] = Example 9 6-week phase 1 study with or without E2/NETA: pharmacokinetics; type: in vivo; conditions: female, human, plasma, 40 mg; for half-life: plasma Compound 1 t1/2, mean (SD); for Tmax: plasma Compound 1 tmax, median (min, max)
Excerpt: as §3

[4] = tested on: women with uterine fibroids; conditions: in vivo
Experimental: The primary endpoint was the proportion of patients with a total Pictorial Blood Loss Assessment Chart (PBAC) score 4 of <10 from Week 6 to 12. Secondary endpoints included amenorrhea (PBAC score of 0), myoma and uterine volumes, hemoglobin (Hb), Numerical Rating Scale (NRS) score, Uterine Fibroid Symptom and Quality of Life (UFS-QOL) scores. Serum levels of luteinizing hormone (LH), follicle-stimulating hormone (FSH), estradiol (E2) and progesterone (P) were evaluated as pharmacodynamics endpoints. Safety endpoints included adverse events (AEs), vital signs, weight, 12-lead electrocardiogram (ECG), clinical laboratory tests, bone mineral density (BMD) and recovery of menstruation.
The bone mineral density (BMD) of the second to fourth lumbar vertebra (L2 to L4) was measured using dual X-ray absorptiometry (DXA).

[5] = tested on: healthy premenopausal women; experiment: Example 4: safety and tolerability; type: in vivo, human; conditions: single doses up to 80 mg, up to 40 mg QD for 14 days
Excerpt: The study was a phase 1, double-blind, randomized, placebo-controlled, sequential-panel, ascending single- and multiple-dose study in healthy premenopausal women. Ten groups, each of 12 healthy premenopausal, adult women, participated in the study (Cohorts 1 to 10).
Serum chemistry, hematology, urinalysis, vital signs, and ECGs were monitored during the study up to 1 week after the last dose. There were no meaningful changes in these parameters in the Compound 1 dose groups compared with placebo. QT and corrected QT interval (QTc) intervals >450 msec and […] were seen across all dose groups, including the placebo group.

[6] = human, plasma, po, Day 14 of multiple doses of 10 to 40 mg

CONC(=O)Nc1ccc(-c2sc3c(c2CN(C)C)c(=O)n(-c2ccc(OC)nn2)c(=O)n3Cc2c(F)cccc2F)cc1 [Compound 1, N-(4-(1-(2,6-difluorobenzyl)-5-((dimethylamino)methyl)-3-(6-methoxy-3-pyridazinyl)-2,4-dioxo-1,2,3,4-tetrahydrothieno[2,3-d]pyrimidin-6-yl)phenyl)-N′-methoxyurea]
Tmax (hr) | Median (FIG. 11): 1.00 h
Tmax (hr) | Median (FIG. 7D): 0.980 h and 1.480 h and 1.000 h
CL/F (L/hr) | Mean (FIG. 6C): 739.7 L/h and 445.4 L/h
Vz/F (L) | Mean (FIG. 6C): 17932.0 L and 11042.3 L
Lambda_z (1/hr) | Mean (FIG. 6B): 0.04147 h⁻¹ and 0.04013 h⁻¹
T1/2 (hr) | Mean (FIG. 6B): 16.9911 h and 17.6896 h
Tmax (hr) | Median (FIG. 6B): 3.005 h and 3.980 h
No bleeding ([1]; last 28 days of treatment): 18 (72.0%) n (%)
No light/normal/heavy bleeding (i.e., no bleeding except spotting) ([1]; last 28 days of treatment): 22 (88.0%) n (%)
No normal/heavy bleeding ([1]; last 28 days of treatment): 23 (92.0%) n (%)
subjects reporting no menstrual bleeding (except spotting) ([1]; last 28 days of treatment): 88.0%
subjects reporting no normal or heavy bleeding ([1]; last 28 days of treatment): 92.0%
average number of hot flash per subject (any severity) ([1]; week 6): 72.6
number of hot flash in subjects reporting severe hot flash ([1]; week 6): 63.2
proportion of subjects reporting hot flash ([1]; week 6): 60%
half-life ([2]; human, plasma, po, single dose 1 to 80 mg): 7.1 to 19.8 h
Tmax [2, 6]: 1 to 1.5 h
half-life [2, 6]: 19.2 to 24.6 h
day by which steady state was reached ([2]; multiple dosing): ≤ 7 days
AUC(0-t) ([3]; Compound 1 AUC0-24, geometric mean (CV%), Week 6): 116 ng·h/mL
Cmax ([3]; Compound 1 Cmax, geometric mean (CV%), Week 6): 17.6 ng/mL
AUC(0-t) ([3]; plasma Compound 1 AUC0-24, mean (SD), Week 3): 133 ng·h/mL
AUC(0-t) ([3]; plasma Compound 1 AUC0-24, mean (SD), Week 6): 125 ng·h/mL
concentration at 3 week ([3]; plasma Compound 1 Cavg, mean (SD), Week 3): 5.53 ng/mL
concentration at 6 week ([3]; plasma Compound 1 Cavg, mean (SD), Week 6): 5.2 ng/mL
Cmax ([3]; plasma Compound 1 Cmax, mean (SD), Week 3): 21.8 ng/mL
Cmax ([3]; plasma Compound 1 Cmax, mean (SD), Week 6): 19.5 ng/mL
concentration at 3 week ([3]; plasma Compound 1 Ctrough, mean (SD), Week 3): 2.57 ng/mL
concentration at 6 week ([3]; plasma Compound 1 Ctrough, mean (SD), Week 6): 2.45 ng/mL
half-life ([3]; Week 3): 16.7 h
half-life ([3]; Week 6): 17.1 h
Tmax ([3]; Week 3): 2.02 h
Tmax ([3]; Week 6): 2 h
menstruation recovery period after the last dose [4]: 20 to 35 days
safety and tolerability [5]: safe and well tolerated
